This is an account of results in patent US6750228B1, “Aromatic sulfone hydroxamic acid metalloprotease inhibitor” (priority 1997, dated 2004).

Some results are limits rather than exact numbers.

The IC50 is the concentration that gives 50% inhibition.

Common to all, as to assay: biochemical
One test deals with T1, MMP-2 (Homo sapiens, UniProt P08253).
T1 construct: made in house; provided by Dr. Gregory Goldberg, Washington University
T1 sequence (P08253 110-660): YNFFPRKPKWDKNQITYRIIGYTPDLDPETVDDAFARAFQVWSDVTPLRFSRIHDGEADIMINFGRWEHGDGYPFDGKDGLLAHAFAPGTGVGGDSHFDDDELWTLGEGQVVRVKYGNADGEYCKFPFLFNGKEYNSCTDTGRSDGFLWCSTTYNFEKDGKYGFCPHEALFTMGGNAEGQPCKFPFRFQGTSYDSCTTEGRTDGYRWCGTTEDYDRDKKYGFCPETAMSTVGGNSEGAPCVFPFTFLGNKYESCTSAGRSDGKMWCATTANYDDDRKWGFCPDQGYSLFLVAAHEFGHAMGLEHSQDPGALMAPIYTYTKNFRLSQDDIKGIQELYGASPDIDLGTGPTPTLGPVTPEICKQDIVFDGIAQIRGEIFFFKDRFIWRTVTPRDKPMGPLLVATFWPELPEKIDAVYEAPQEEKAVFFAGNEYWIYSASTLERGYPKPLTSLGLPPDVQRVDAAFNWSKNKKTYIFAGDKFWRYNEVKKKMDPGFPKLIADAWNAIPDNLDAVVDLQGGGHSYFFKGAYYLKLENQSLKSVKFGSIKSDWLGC
The following applies: recombinant human MMP-2, MCA peptide substrate 4 μM, pH 7.5, room temperature; read-out: MMP-2 IC50. The method in brief:
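Assay buffer 100 mM Tris-HCl, 100 mM NaCl, 10 mM CaCl2, pH 7.5. Activated MMP + inhibitor, 5 min RT; then methoxycoumarin peptide substrate, 4 μM final. Readout fluorescence; IC50 calculated.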

The next test has as its target T2, MMP-1 (Homo sapiens, UniProt P03956).
T2 construct: made in house; host or cells: transfected HT-1080 cells (provided by Dr. Harold Welgus, Washington University)
T2 sequence (P03956 100-469): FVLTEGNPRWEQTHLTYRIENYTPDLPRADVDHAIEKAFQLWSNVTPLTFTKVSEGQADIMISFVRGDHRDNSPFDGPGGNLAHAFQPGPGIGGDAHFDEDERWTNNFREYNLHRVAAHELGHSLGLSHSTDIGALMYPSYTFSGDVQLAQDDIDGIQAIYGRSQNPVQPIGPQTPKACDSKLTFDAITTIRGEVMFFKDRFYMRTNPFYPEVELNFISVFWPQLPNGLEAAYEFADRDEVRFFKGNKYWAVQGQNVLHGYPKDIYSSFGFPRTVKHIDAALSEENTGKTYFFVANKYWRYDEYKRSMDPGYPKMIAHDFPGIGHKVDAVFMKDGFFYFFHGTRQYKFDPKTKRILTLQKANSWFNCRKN
The following applies: recombinant human MMP-1, MCA peptide substrate 4 μM, pH 7.5, room temperature; read-out: MMP-1 IC50. The gist of the method: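 Substrate MCA-PLGL-Dpa-AR-NH2 at 4 μM final; pH 7.5 Tris/NaCl/CaCl2 buffer with 0.05% polyethyleneglycol lauryl ether, 1% DMSO, room temperature. MMP-1 was expressed in transfected HT-1080 cells and APMA-activated.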

The target of the next test is T3, MMP-13 (Homo sapiens, UniProt P45452).
T3 construct: made in house; host or cells: baculovirus / insect cells
The conditions noted are these: recombinant human MMP-13, MCA peptide substrate 4 μM, pH 7.5, room temperature; read-out: MMP-13 IC50. The method in brief:
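APMA- or trypsin-activated enzymes were preincubated with inhibitor for 5 min at room temperature, then the fluorogenic substrate MCA-Pro-Leu-Gly-Leu-Dpa-Ala-Arg-NH2 was added to a final 4 μM.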

For `COCCN1CCN(CC(=O)N2CCC(C(=O)NO)(S(=O)(=O)c3ccc(N4CCC(C(=O)N5CC(C)CC(C)C5)CC4)cc3)CC2)CC1` (stereo not drawn) [Example 307], the IC50 at MMP-2 was over 10000 nM; on MMP-1 it was over 10000 nM; on MMP-13 it was 40 nM.

Turning to `COCCNCC(=O)N1CCC(C(=O)NO)(S(=O)(=O)c2ccc(N3CCC(C(=O)N4CC(C)CC(C)C4)CC3)cc2)CC1` (stereo not drawn) [Example 309], the IC50 is over 10000 nM at MMP-2, over 10000 nM on MMP-1 and 48.5 nM on MMP-13.

As for `CC1CC(C)CN(C(=O)C2CCN(c3ccc(S(=O)(=O)C4(C(=O)NO)CCN(C(=O)Cn5cncn5)CC4)cc3)CC2)C1` (stereo not drawn) [Example 311], the IC50 at MMP-2 is over 10000 nM; at MMP-1 it was over 10000 nM; at MMP-13, 120 nM.

With `CONCC(=O)N1CCC(C(=O)NO)(S(=O)(=O)c2ccc(N3CCC(C(=O)N4CC(C)CC(C)C4)CC3)cc2)CC1` (stereo not drawn) [Example 312], the results for the IC50 on MMP-2, at MMP-1 and at MMP-13 were over 10000 nM, over 10000 nM and 200 nM, respectively.

Turning to `CCOC(=O)C1CCN(CC(=O)N2CCC(C(=O)NO)(S(=O)(=O)c3ccc(N4CCC(C(=O)N5CC(C)CC(C)C5)CC4)cc3)CC2)CC1` (stereo not drawn) [Example 313], the results for the IC50 on MMP-2, on MMP-1 and on MMP-13 were over 10000 nM, over 10000 nM and 77 nM, respectively.

Consider `CC1CC(C)CN(C(=O)C2CCN(c3ccc(S(=O)(=O)C4(C(=O)NO)CCN(C(=O)CN5CCCC5=O)CC4)cc3)CC2)C1` (stereo not drawn) [Example 314], for which the results for the IC50 at MMP-2, at MMP-1 and on MMP-13 were over 10000 nM, over 10000 nM and 65 nM, respectively.

For `CC1CC(C)CN(C(=O)C2CCN(c3ccc(S(=O)(=O)C4(C(=O)NO)CCN(C(=O)CN5CCC(C(=O)O)CC5)CC4)cc3)CC2)C1` (stereo not drawn) [Example 315], the IC50 on MMP-2 was over 10000 nM; on MMP-1, over 10000 nM; on MMP-13, 420 nM.

Turning to `O=C(CNCc1cccnc1)N1CCC(C(=O)NO)(S(=O)(=O)c2ccc(Oc3ccc(C(F)(F)F)cc3)cc2)CC1` [Example 316], the IC50 at MMP-2 was 0.2 nM; on MMP-1, over 10000 nM; on MMP-13, 0.4 nM.

For the compound `O=C(Cn1ccnc1)N1CCC(C(=O)NO)(S(=O)(=O)c2ccc(Oc3ccc(C(F)(F)F)cc3)cc2)CC1` [Example 317], the IC50 was 0.4 nM at MMP-2, over 10000 nM at MMP-1 and 1.4 nM at MMP-13.

For `O=C(CN1CCCCC1)N1CCC(C(=O)NO)(S(=O)(=O)c2ccc(Oc3ccc(C(F)(F)F)cc3)cc2)CC1` [Example 318], the IC50 was 0.1 nM on MMP-2, over 10000 nM at MMP-1 and 0.3 nM on MMP-13.

In the case of `O=C(CN1CCOCC1)N1CCC(C(=O)NO)(S(=O)(=O)c2ccc(Oc3ccc(C(F)(F)F)cc3)cc2)CC1` [Example 319], the IC50 at MMP-2 was 0.2 nM; at MMP-1, over 10000 nM; on MMP-13 it was 0.5 nM.

As to `O=C(CNCc1ccccn1)N1CCC(C(=O)NO)(S(=O)(=O)c2ccc(Oc3ccc(C(F)(F)F)cc3)cc2)CC1` [Example 320], the IC50 at MMP-2 was 4 nM; at MMP-1, over 10000 nM; on MMP-13 it was 12.1 nM.

In the case of `O=C(CNCCO)N1CCC(C(=O)NO)(S(=O)(=O)c2ccc(Oc3ccc(C(F)(F)F)cc3)cc2)CC1` [Example 321], the results for the IC50 at MMP-2, on MMP-1 and at MMP-13 were 0.3 nM, over 10000 nM and 0.5 nM, respectively.

Consider `O=C(CNCC(F)(F)F)N1CCC(C(=O)NO)(S(=O)(=O)c2ccc(Oc3ccc(C(F)(F)F)cc3)cc2)CC1` [Example 322], for which the IC50 is 0.3 nM on MMP-2, over 10000 nM on MMP-1 and 0.3 nM on MMP-13.

Consider `CN(C)CCN(C)CC(=O)N1CCC(C(=O)NO)(S(=O)(=O)c2ccc(Oc3ccc(C(F)(F)F)cc3)cc2)CC1` [Example 323], for which the IC50 is 0.4 nM at MMP-2, over 10000 nM at MMP-1 and 1.3 nM at MMP-13.

Consider `CN1CCN(CC(=O)N2CCC(C(=O)NO)(S(=O)(=O)c3ccc(Oc4ccc(C(F)(F)F)cc4)cc3)CC2)CC1` [Example 324], for which the figures for the IC50 at MMP-2, at MMP-1 and on MMP-13 were 0.4 nM, over 10000 nM and 0.7 nM, respectively.

With `O=C(CNCc1ccncc1)N1CCC(C(=O)NO)(S(=O)(=O)c2ccc(Oc3ccc(C(F)(F)F)cc3)cc2)CC1` [Example 325], the results for the IC50 on MMP-2, on MMP-1 and on MMP-13 were 0.2 nM, over 10000 nM and 0.9 nM, respectively.

As to `O=C(CN1CCCC1)N1CCC(C(=O)NO)(S(=O)(=O)c2ccc(Oc3ccc(C(F)(F)F)cc3)cc2)CC1` [Example 326], the IC50 is 0.45 nM at MMP-2, over 10000 nM on MMP-1 and 0.6 nM on MMP-13.

On to `COCCN(CCOC)CC(=O)N1CCC(C(=O)NO)(S(=O)(=O)c2ccc(Oc3ccc(C(F)(F)F)cc3)cc2)CC1` [Example 327], for which the IC50 on MMP-2 was 0.3 nM; on MMP-1, over 10000 nM; on MMP-13, 0.9 nM.

For `O=C(CN1CCNCC1)N1CCC(C(=O)NO)(S(=O)(=O)c2ccc(Oc3ccc(C(F)(F)F)cc3)cc2)CC1` [Example 328], the results for the IC50 on MMP-2, on MMP-1 and at MMP-13 were 0.4 nM, over 10000 nM and 0.35 nM, respectively.

Regarding `CCN(CC(=O)N1CCC(C(=O)NO)(S(=O)(=O)c2ccc(Oc3ccc(C(F)(F)F)cc3)cc2)CC1)Cc1ccncc1` [Example 329], the IC50 on MMP-2 was 0.4 nM; on MMP-1, over 10000 nM; on MMP-13, 0.9 nM.

As for `COCCN1CCN(CC(=O)N2CCC(C(=O)NO)(S(=O)(=O)c3ccc(Oc4ccc(C(F)(F)F)cc4)cc3)CC2)CC1` [Example 330], the figures for the IC50 on MMP-2, on MMP-1 and at MMP-13 were 0.7 nM, over 10000 nM and 0.5 nM, respectively.

Regarding `CCCN(CC(=O)N1CCC(C(=O)NO)(S(=O)(=O)c2ccc(Oc3ccc(C(F)(F)F)cc3)cc2)CC1)CC1CC1` [Example 331], the IC50 is 0.2 nM on MMP-2, over 10000 nM on MMP-1 and 0.7 nM on MMP-13.

In the case of `COCCNCC(=O)N1CCC(C(=O)NO)(S(=O)(=O)c2ccc(Oc3ccc(C(F)(F)F)cc3)cc2)CC1` [Example 332], the IC50 at MMP-2 is 0.4 nM; on MMP-1, over 10000 nM; at MMP-13, 2.1 nM.

With `O=C(CCCCNCc1cccnc1)N1CCC(C(=O)NO)(S(=O)(=O)c2ccc(Oc3ccc(C(F)(F)F)cc3)cc2)CC1` [Example 333], the IC50 on MMP-2 is 0.2 nM; at MMP-1 it was over 10000 nM; at MMP-13, 0.8 nM.

Regarding `O=C(CCCCN1CCCCC1)N1CCC(C(=O)NO)(S(=O)(=O)c2ccc(Oc3ccc(C(F)(F)F)cc3)cc2)CC1` [Example 334], the values for the IC50 on MMP-2, on MMP-1 and at MMP-13 were 0.3 nM, over 10000 nM and 0.7 nM, respectively.

`O=C(CCCCN1CCOCC1)N1CCC(C(=O)NO)(S(=O)(=O)c2ccc(Oc3ccc(C(F)(F)F)cc3)cc2)CC1` [Example 335]: the IC50 was 0.15 nM on MMP-2, over 10000 nM at MMP-1 and 0.9 nM on MMP-13.

On to `O=C(CCCCNCc1ccccn1)N1CCC(C(=O)NO)(S(=O)(=O)c2ccc(Oc3ccc(C(F)(F)F)cc3)cc2)CC1` [Example 336], for which the results for the IC50 at MMP-2, on MMP-1 and on MMP-13 were under 0.1 nM, over 10000 nM and 1 nM, respectively.

For `O=C(CCCCNCCO)N1CCC(C(=O)NO)(S(=O)(=O)c2ccc(Oc3ccc(C(F)(F)F)cc3)cc2)CC1` [Example 337], the half-inhibitory concentration (IC50) on MMP-2 is 0.2 nM; at MMP-1, over 10000 nM; on MMP-13, 2.7 nM.

`CN(C)CCN(C)CCCCC(=O)N1CCC(C(=O)NO)(S(=O)(=O)c2ccc(Oc3ccc(C(F)(F)F)cc3)cc2)CC1` [Example 338]: the IC50 is 0.2 nM on MMP-2, over 10000 nM at MMP-1 and 1.9 nM on MMP-13.

As for `CN1CCN(CCCCC(=O)N2CCC(C(=O)NO)(S(=O)(=O)c3ccc(Oc4ccc(C(F)(F)F)cc4)cc3)CC2)CC1` [Example 339], the IC50 was 0.3 nM at MMP-2, over 10000 nM at MMP-1 and 1 nM at MMP-13.

With `O=C(CCCCNCc1ccncc1)N1CCC(C(=O)NO)(S(=O)(=O)c2ccc(Oc3ccc(C(F)(F)F)cc3)cc2)CC1` [Example 340], the IC50 is under 0.1 nM at MMP-2, over 10000 nM on MMP-1 and 0.3 nM on MMP-13.
